Active and inactive are the calls of the source.
Experiments:
[1] = alpha-synuclein stem-loop luciferase translation blockers – H4 neuroglioma cells, luminescence, confirmation (AID 1988); format: functional, cell-based
[2] = alpha-synuclein stem-loop translation blockers – luminescence, H4 neuroglioblastoma cells, dose confirmation, confirmation (AID 2454); format: functional, cell-based;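 further: H4 neuroglioblastoma cells carrying an alpha-synuclein 5'UTR luciferase reporter; potency for inhibition of the luciferase signal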
[3] = Luminescence-based dose response cell-based high throughput screening assay for cytotoxic compounds using the IEC-6 intestinal epithelial cell line. [Related pubchem assays: 1858 (Summary AID.), 1825 (Counterscreen.), 1907 (Confirmation screen.)]; format: functional
[4] = luciferase reporter signal reduction – luminescence, H4-C neuroglioblastoma cells, dose response (AID 2458); format: functional, cell-based;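 further: H4 neuroglioblastoma cells stably carrying a luciferase reporter gene fusion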
[5] = HEK-293T viability loss after treatment – luminescence, T-cell screen hits, cytotoxicity control for TCR NF-kB inhibitor project, dose response (AID 489026); format: functional, cell-based;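 further: cells exposed to compound about 14 hours before the viability readout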
cells [6] = format: functional, cell-based
[7] = Luminescence Cell-Based Dose Response HTS to Identify Inhibitors of 5'UTR Stem-Loop Driven Prion Protein mRNA Translation in H4 Neuroglioblastoma Cells. [Related pubchem assays: 1827 (Project Summary), 1813 (Primary HTS)]; format: functional
Cytochrome P450 2D6 = Cytochrome P450 2D6 (Homo sapiens, UniProt P10635);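 further: CYP2D6 member of a cytochrome P450 panel assay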
cells [8] = assay: cells
Cytochrome P450 3A4 = Cytochrome P450 3A4 (Homo sapiens, UniProt P08684);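 further: CYP3A4 tested as one member of a cytochrome P450 panel screen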
[9] = NIH3T3 cell viability loss – ATP luminescence, mouse fibroblasts, counter-screen, dose response (AID 2010); format: functional, cell-based;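 further: cells exposed to compound for about 90 hours before reading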
[10] = Trypanosoma cruzi growth suppression in host cells – NIH3T3 host cells, beta-gal luminescence, confirmation (AID 2044); format: functional, cell-based;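 further: intracellular parasites grown in NIH/3T3 mouse fibroblasts as host cells; luminescent beta-galactosidase reporter signal from transgenic T. cruzi replicating inside host cells; inhibitors lower the luminescence signal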
cells [11] = format: functional, cell-based; remark: listed apart in the source
cells [12] = format: functional, cell-based; remark: listed apart in the source
Kallikrein-7 = Kallikrein-7 (Homo sapiens, UniProt P49862); assay: Fluorescence Intensity-based biochemical primary high throughput dose response assay to identify activators of kallikrein-7 (K7) zymogen.
[13] = P. falciparum Dd2 growth inhibitors, dose response, SYBR Green, cherry-picked samples (AID 1159567); format: functional, cell-based
[14] = Dd2 malaria parasite growth inhibition potency – SYBR Green, dry powder samples, dose response (AID 1159566); format: functional, cell-based;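 further: potency for growth inhibition with lower SYBR green DNA signal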
[15] = growth inhibition of PfATP4-mutant resistant parasites – NITD609-resistant line, SYBR Green, dry powder, dose response (AID 1159571); format: functional, cell-based;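 further: parasites synchronized at ring stage by sorbitol before testing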
[16] = growth inhibition of yeast DHODH-expressing 3D7 parasites – SYBR Green, dry powder samples, dose response (AID 1159570); format: functional, cell-based;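 further: parasite growth measured after 72 hours of compound exposure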
[17] = toxicity to human HepG2 hepatoma cells – cell-based, plate reader, dry powder samples, cytotoxicity control, dose response (AID 1159569); format: functional;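 further: inhibitor potency with signal falling toward the positive control level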
Protein Tat = target: T1, Protein Tat (Human immunodeficiency virus type 1 group M subtype B (isolate HXB2)(HIV-1), UniProt P04608); format: functional;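 further: tat binding to TAR RNA read out by fluorescence polarization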
T1 sequence (P04608 whole entry): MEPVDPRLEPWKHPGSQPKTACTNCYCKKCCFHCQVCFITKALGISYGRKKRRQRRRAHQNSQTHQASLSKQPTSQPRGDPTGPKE

[18] = viability loss in HEK293 cells – cell-based, plate reader, cherry-picked samples, cytotoxicity control, dose response (AID 743446); format: functional
cells [19] = format: functional, cell-based; remark: listed apart in the source
[20] = target: T2, Nuclear receptor subfamily 0 group B member 1 (Homo sapiens, UniProt P51843); format: functional, cell-based;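 further: HEK293T cells transfected with SF-1 and DAX-1 plus StAR promoter luciferase reporter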
T2 sequence (P51843 whole entry): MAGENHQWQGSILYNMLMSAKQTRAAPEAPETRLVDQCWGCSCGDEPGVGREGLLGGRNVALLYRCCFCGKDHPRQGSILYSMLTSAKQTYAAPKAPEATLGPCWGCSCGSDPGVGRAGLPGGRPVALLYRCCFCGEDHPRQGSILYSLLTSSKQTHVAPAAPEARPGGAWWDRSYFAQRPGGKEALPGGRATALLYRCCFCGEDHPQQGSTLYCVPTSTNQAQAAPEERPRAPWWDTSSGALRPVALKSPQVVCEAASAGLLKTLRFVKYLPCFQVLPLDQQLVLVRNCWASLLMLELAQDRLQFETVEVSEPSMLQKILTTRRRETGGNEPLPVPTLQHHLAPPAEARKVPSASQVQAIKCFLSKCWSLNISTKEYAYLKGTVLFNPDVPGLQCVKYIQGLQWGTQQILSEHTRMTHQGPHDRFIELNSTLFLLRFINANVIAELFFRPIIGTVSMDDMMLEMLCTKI

[21] = blockade of melanocortin 4 receptor signaling – cell-based, plate reader, cherry pick, counter-screen for LGR2 antagonist project, dose response (AID 743444); format: functional;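 further: transfected HEK 293 cells stimulated with alpha-MSH peptide; potency of inhibitors of the alpha-MSH evoked signal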
[22] = blockers of bursicon-stimulated LGR2 cAMP reporter – cell-based, HEK293, CRE-luciferase reporter, cherry pick, set 2, dose response (AID 743343); format: functional;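 further: transfected cells were stimulated with diluted bursicon conditioned medium after compound addition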
Major prion protein = Major prion protein (Homo sapiens, UniProt P04156); format: functional, cell-based
cells [23] = assay: cells; remark: listed apart in the source
[24] = cytotoxicity toward Colo320 cells – cell-based, CellTiter-Glo luminescence, IC50, dose response (AID 1117334); format: functional; details: COLO 320
[25] = SNU-C1 cell viability reduction, dose response, CellTiter-Glo luminescence (AID 1117323); format: functional, cell-based
[26] = Reduced DLD-1 viability, concentration-response, CellTiter-Glo luminescence (AID 1117352); format: functional
[27] = HCT116 cell viability decrease, GSK3B pretreatment – CellTiter-Glo, IC50, dose response (AID 1117339); format: functional; details: HCT-116
[28] = cytotoxicity toward HCT116 cells – cell-based, CellTiter-Glo luminescence, IC50, dose response (AID 1117332); format: functional; details: HCT-116
[29] = cytotoxicity toward HT-29 cells – cell-based, CellTiter-Glo luminescence, IC50, dose response (AID 1117330); format: functional
[30] = CellTiter-Glo luminescence survival assay, SW480 colon tumor line, concentration-response curve, half-maximal inhibitory concentration (AID 1117338); format: functional
[31] = RKO cell viability reduction, dose response, CellTiter-Glo luminescence (AID 1117322); format: functional

CC/C=C/CC(=O)N[C@@H](c1ccccc1)[C@@H](O)C(=O)O[C@H]1C[C@@]2(O)[C@@H](OC(=O)c3ccccc3)C3[C@](C)(C(=O)[C@H](OC(C)=O)C(=C1C)C2(C)C)[C@@H](O)C[C@H]1OC[C@@]31OC(C)=O (stereo partly specified)
EC50 [1]: < 0.1 µM (active) | EC50 [2]: 0.021 µM (active) | IC50 [3]: 0.0795 µM (active) | EC50 [4]: 0.062 µM (active) | IC50 [5]: > 80 µM (inactive) | EC50 (cells [6]): 0.307 µM (active) | EC50 [7]: < 0.1 µM (active)

Cc1ccc(CCN2CC(C(=O)NCCCN(C)Cc3ccccc3)CC2=O)cc1 (stereo unspecified)
AC50 (Cytochrome P450 2D6): 14.1 µM (inconclusive) | EC50 (cells [8]): 0.033 µM (active) | AC50 (Cytochrome P450 3A4): 31.6 µM (inconclusive) | EC50 [9]: 15.8 µM (active) | EC50 [10]: < 0.1 µM (active)

c1ccc(N/N=C(\Cc2ncc[nH]2)c2ccccc2)cc1
EC50 (cells [11]): > 29.9 µM (inactive) | IC50 (cells [12]): > 29.9 µM (inactive)

Cc1oc2c(c(C)cc3oc(=O)c(CC(=O)N[C@@H](CCCNC(N)=O)C(=O)O)c(C)c32)c1C
EC50 (Kallikrein-7): 69.3 µM (inactive)

CN(C)C(=O)c1cccc(-c2cccc(-c3nc(C(=O)NC4CCCCC4)cc4c3[C@@H](CCO)N([S@+]([O-])C(C)(C)C)C4)c2)c1
AC50 [13]: 1.62 µM (active) | AC50 [14]: 0.232 µM (active) | AC50 [15]: 0.484 µM (active) | AC50 [16]: 0.806 µM (active) | AC50 [17]: 31.4 µM (active)

CC1=C(C#N)C(=O)N(C)C(C)(C)C1
IC50 (Protein Tat): > 100 µM (active)

Cc1cc(C(=O)CSc2nnc(N)s2)c(C)n1Cc1cccs1
AC50 [18]: > 52 µM (inactive) | IC50 (cells [19]): > 67.5 µM (inactive) | IC50 [20]: > 0.278 µM (active) | AC50 [21]: 4.27 µM (active) | AC50 [22]: 3.93 µM (active)

COc1ccc(OC)c(C2NC(=O)N(C)C(C)=C2C(=O)OCc2ccccc2)c1 (stereo unspecified)
IC50 (Major prion protein): 6.04 µM (active) | IC50 (cells [23]): > 138 µM (inactive)

COCC(C)N(C(=O)CCl)c1c(C)csc1C (stereo unspecified)
IC50 [24]: > 20 µM (inactive) | IC50 [25]: > 20 µM (inactive) | IC50 [26]: > 20 µM (inactive) | IC50 [27]: > 20 µM (inactive) | IC50 [28]: > 20 µM (inactive) | IC50 [29]: > 20 µM (inactive) | IC50 [30]: > 20 µM (inactive) | IC50 [31]: > 20 µM (inactive)

COc1ccc(NC(=O)c2ccc(S(=O)(=O)N3CC(C)CC(C)C3)cc2)cc1S(N)(=O)=O (stereo unspecified)
EC50 (Kallikrein-7): 14.7 µM (inactive)

O=c1c2cc(N3CCOCC3)ccc2[nH]c(=S)n1CCCN1CCCCC1
EC50 (Kallikrein-7): 29.7 µM (inactive)

CN(C)CCN(C(=O)c1ccc(S(=O)(=O)N(C)C)cc1)c1nc2cc3c(cc2s1)OCCO3
EC50 (cells [8]): 0.069 µM (active) | EC50 [9]: > 30 µM (not active) | EC50 [10]: < 0.1 µM (active)

Source: ChEMBL document CHEMBL1201862, “PubChem BioAssay data set” (2004)
